# Data taken from patent US7976841B2, “Anti TfR antibody” (Institut National de la Sante et de la Recherche, priority 2004, dated 2011).
# T1: CD20 (Homo sapiens, UniProt P11836)
# T1 construct: target receptors TfR and CD20 at the surface of a MCL cell line EBV+ and a MCL cell line EBV^−; endogenous in cells; host or cells: MCL-derived B-cell lines (EBV+ and EBV-)
# T1 sequence (P11836 1-297): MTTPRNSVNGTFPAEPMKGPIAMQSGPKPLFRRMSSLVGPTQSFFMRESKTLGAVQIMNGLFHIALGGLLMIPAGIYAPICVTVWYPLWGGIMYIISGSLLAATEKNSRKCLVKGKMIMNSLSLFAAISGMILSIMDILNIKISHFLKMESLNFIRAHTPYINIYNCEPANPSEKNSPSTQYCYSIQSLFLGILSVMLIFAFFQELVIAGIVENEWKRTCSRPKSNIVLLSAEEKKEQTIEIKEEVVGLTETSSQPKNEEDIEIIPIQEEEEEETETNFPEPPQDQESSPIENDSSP
# B1: anti-IL-2Rα: anti-IL-2Rα monoclonal antibody (Zenapax from Hoffmann-La Roche) (antibody, chains of the INN, looked up, V domains shown)
# VH: QVQLVQSGAEVKKPGSSVKVSCKASGYTFTSYRMHWVRQAPGQGLEWIGYINPSTGYTEYNQKFKDKATITADESTNTAYMELSSLRSEDTAVYYCARGGGVFDYWGQGTLVTVSS
# VL: DIQMTQSPSTLSASVGDRVTITCSASSSISYMHWYQQKPGKAPKLLIYTTSNLASGVPARFSGSGSGTEFTLTISSLQPDDFATYYCHQRSTYPLTFGQGTKVEVK
# Columns and labels:
# [1] = system: tumor cells derived from ATL acute patients; experiment: Apoptosis assay (annexin V-FITC/PI, DIOC), acute ATL cells; assay type: cell-based, human
# Method: Two million of PBMC from HTLV-1 patients were treated for 96 h with IL-2 and PHA in the presence or absence of A24 (10 μg/ml), 30.9 (10 μg/ml) or of the apoptosis-inducing agent VP16 (100 ng/ml). Cells were then washed with ice-cold PBS and incubated with a combination of annexin V-FITC and propidium iodide (PI) (Beckman-Coulter, Marseilles, France), according to the manufacturer recommendations. Alternatively, the apoptosis was evaluated through mitochondrial membrane depolarization with the DIOC staining (Molecular Probes) as described earlier (ZERMATI et al., J Exp Med., 193, 247-254, 2001).
# Fe deprivation induces a variety of consequences, such as the reduction of cell proliferation and the activation of programmed cell death (HAQ et al., Exp Hematol., 23, 428-432, 1995), a phenomenon associated with phosphatidylserine exposure and mitochondrial membrane depolarization. […] The results are shown of FIGS. 7 A and 7B.
# Comparative effect of A24, 30.9 and VP 16 on the induction of programmed cell death in selected cells. Cells were activated or not with PHA and IL-2 and incubated in the presence of 30.9, A24 and VP16. Apoptotic and necrotic cells were followed by flow cytometry using an annexin-V-FITC/PI kit. […] Data represents one out of three different experiments.
# [2] = target: T1, CD20; experiment: CD20 expression at the surface of MCL cell lines, flow cytometry; assay type: cell-based; settings: Rituximab 10 μg/ml, 30 minutes to 72 hours
# Description: In a first time, we checked by flow cytometry the rate of expression of TfR and CD20 on […] B-cells lines (EBV+ and EBV^−) derived from MCL5. using an anti-CD71-PE antibody (Beckman-Coulter) and an anti-CD20-PE antibody (Becton Dickinson). The results are shown on FIGS. 8 A and B. The gray histograms respectively represent the rate of expression of the CD71 (A) and of the CD20 (B) at the surface of MCL cells EBV+ (a,b,c,e,f,g) or EBV^− (d). This rate is specified on each histogram after substraction of the background noise of the staining.
# The results are shown on FIGS. 9A (A24) and 9B (Rituximab).
# [3] = system: EBV+ and EBV− MCL lines; experiment: MCL cell proliferation, radioactive thymidine incorporation; assay type: cell-based, human; settings: 72 hours, […] to 20 μg/ml
# Description: The cellular proliferation is expressed as a percent of the proliferation of untreated control cells. The results are shown on FIG. 10.
# [4] = system: resting T cells co-cultured with dendritic cells; experiment: Allogeneic Mixed Leukocyte Reaction (MLR), DC-induced T cell proliferation; assay type: cell-based, human; settings: 6 days of culture
# Description: Peripheral blood mononuclear cells (PBMC) were isolated as described earlier by the standard Ficoll-Paque method (Amersham Life Science, Buckinghamshire, U.K.) (BAZARBACHI et al, Blood., 93, 278-283, 1999). The healthy volunteers and the 4 acute and 3 chronic ATL patients (classified following Shirono criteria) (SHIRONO et al., Leukemia., 8, 1834-1837, 1994) had all given their informed consent. ATL tumor cells represented between 60-90% of the T cell population. Each cell type was freshly cultured in conditioned RPMI-1640 medium supplemented with 10% of fetal calf serum (FCS, Gibco BRL) and a mixture of interleukin-2 (20 U/ml IL-2) and phytohemagglutinin (4 μg/ml PHA). Mixed leukocyte reaction (MLR) was performed as described earlier (TORDJMAN et al., Nat Immunol., 3, 477-482, 2002). CIB tropical spastic paraparesis (HAM/TSP) cell line was cultured in RPMI-1640 medium supplemented with 10% of FCS.
# To test if A24 could also block physiologically activated T cell proliferation, we examined the effect of A24 in allogeneic Mixed Leukocyte Reaction (MLR). DC-induced allogenic T cell proliferation was evaluated after 6 days of culture in the presence of A24, control antibody (30.9) or arsenic trioxide (Ars). The results are shown in FIG. 1 B. Data represents means SD of one out of three separate experiments. […]
# [5] = system: HTLV-1 infected T cell clones; experiment: Emergence of HTLV-1 infected T cell clones, 2-week culture; assay type: cell-based, human; settings: chronic ATL PBMC, single dose on first day, 2 weeks
# Method: HTLV-1 infected cells can proliferate in vitro, but the clones that proliferate in culture are generally not the same as those that proliferate in the patient. To verify if A24 could inhibit the emergence of HTLV-1 infected T cell clones, we cultured cells freshly isolated from patients and from healthy individuals in the presence or absence of A24. PBMC from HTLV-1 infected patients with a chronic ATL form were plated in culture wells with the 30.9, A24 or Ars for 2 weeks. Emergence of HTLV-1 clones was evaluated by [3H] thymidine incorporation. After 2 weeks of culture, the appearance of proliferating cells was assessed by [3H] thymidine incorporation.
# [6] = system: PBMC from HTLV-I infected patients with acute or chronic ATL; experiment: Proliferation of PBMC from ATL patients, PHA/IL-2, [3H] thymidine incorporation; assay type: cell-based, human; settings: PHA/IL-2, 72 h
# Method: (§1) PBMC were resuspended in RPMI-1640 with 10% FCS, and added in triplicates at the concentration of 10^5 cells/well in 96-well tissue culture plates (Falcon, Oxnard, Calif.). Proliferation was measured over 18 h, using pulses with 1 μCi/well of [^3H]-thymidine (Amersham Life Science, Buckinghamshire, U.K.). Cells were then harvested with a 96-well Harvester (Pharmacia, St. Quentin, France), collected on filters (Pharmacia) and the incorporation of [^3H] thymidine was measured with β-plate microscintillation counter (LKB, Pharmacia).
# PBMC from healthy individuals (a) and HTLV-I infected patients with an acute ATL (b) or a chronic ATL (c) were plated in culture wells with A24 or a control antibody (30.9) in the presence of PHA/IL-2, for 72 h before [3H] thymidine incorporation. The results are shown on FIG. 2C.
# (§2) TfR expression is essential for the proliferation of both normal and malignant T cells. While TfR expression in normal T cells is tightly coupled to interleukin-2 receptor expression, TfR expression in malignant cells is usually constitutive. It was previously shown that the anti-IL-2Rα can efficiently block the ex vivo proliferation of cells derived from chronic ATL patients. […] Proliferation of these cells was then measured by [^3H] thymidine incorporation. […]
# [7] = system: peripheral blood leukocytes (PBMC); experiment: Proliferation of PHA/IL-2-activated PBMC from healthy individuals, [3H]-thymidine incorporation; assay type: cell-based, human; settings: PHA/IL-2, 72 h
# Method: as §1
# To investigate the activity of A24 on peripheral blood leukocytes (PBMC) proliferation, cells were activated with PHA/IL-2 and incubated with different concentrations of A24 (0 to 50 μg/ml) or control antibody (30.9) (0 to 50 μg/ml) for 72 h before [^3H]-thymidine incorporation.
# as §2
molecule,measurement,setting,value
COc1cc([C@@H]2c3cc4c(cc3[C@@H](O[C@@H]3O[C@@H]5CO[C@@H](C)O[C@H]5[C@H](O)[C@H]3O)[C@H]3COC(=O)[C@H]23)OCO4)cc(OC)c1O [VP 16],annexin-V staining,"[1]; A24 10 μg/ml, VP16 100 ng/ml, 96 h",a large population that stained brightly with annexin-V appeared
same,DIOC staining (mitochondrial depolarization),[1]; activated leukocytes from ATL acute patient,drastic reduction
Rituximab: anti-CD20 antibody manufactured by Genentech,expression of the CD20,[2],does not induce notable reduction
same,inhibition of MCL proliferation,[3],≤ 20%
arsenic trioxide,effect on T cell proliferation,[4],block T cell proliferation
same,effect on proliferation of HTLV-1 infected T cell clones,[5],more efficient than A24
B1,"effect on cell proliferation, acute ATL",[6]; acute ATL,did not block
same,"effect on cell proliferation, chronic ATL",[6]; chronic ATL,significantly inhibited
same,effect on PHA/IL-2-induced cell proliferation,[7],significantly inhibited
